Results: publication PMC6930500, “Structure–Activity Relationships of 7-Substituted Dimethyltyrosine-Tetrahydroisoquinoline Opioid Peptidomimetics” (Molecules, 2019)

Experiments:
human MOR [1] = target: T1, human MOR (Homo sapiens, UniProt P35372); test: [35S]-GTPγS binding stimulation, MOR; type: biochemical; settings: mean (SEM), * n = 2; for EC50: CHO-human MOR membranes, dns = does not stimulate, average maximal stimulation <10% at up to 10 µM; for Emax: versus 10 µM standard agonist DAMGO, dns = average maximal stimulation <10% at up to 10 µM
T1 construct: expressed in transfected cells; cell lines provided by Professor Lawrence Toll
Experimental: (§1) Each novel compound was evaluated for binding to and stimulation of KOR, MOR, and DOR. Binding affinity (Ki) was determined by competitive displacement of [^3H]-diprenorphine, a non-selective opioid receptor antagonist with similar affinity for each of the three receptors. Potency (EC50) and efficacy, expressed as percent stimulation compared to a standard agonist at each receptor, were determined by a [^35S]-GTPγS binding assay.
(§2) Membranes prepared from transfected Chinese Hamster Ovary cells stably expressing human KOR, human MOR, or human DOR were used for all assays. Cells were grown to confluence at 37 °C in 5% CO2 in 1:1 DMEM:F12 media with 10% v/v fetal bovine serum and 5% v/v penicillin/streptomycin. Membranes were prepared by washing confluent cells three times with ice cold phosphate-buffered saline (0.9% NaCl, 0.61 mM Na2HPO4, 0.38 mM KH2PO4, pH 7.4). Cells were detached from the plates by incubation in warm harvesting buffer (20 mM HEPES, 150 mM NaCl, 0.68 mM EDTA, pH 7.4) and pelleted by centrifugation at 200× g for 3 min. The cell pellet was suspended in ice-cold 50 mM Tris-HCl buffer, pH 7.4 and homogenized with a Tissue Tearor (Biospec Products, Inc, distributed by Cole-Parmer, Vernon Hills, IL, USA) for 20 s at setting 4. The homogenate was centrifuged at 20,000× g for 20 min at 4 °C, and the pellet was rehomogenized in 50 mM Tris-HCl pH 7.4 with a Tissue Tearor for 10 s at setting 2, followed by recentrifugation. The final pellet was resuspended in 50 mM Tris-HCl pH 7.4 and frozen in aliquots at −80 °C. Protein concentration was determined via Pierce BCA protein assay kit using bovine serum albumin as the standard.
(§3) Agonist stimulation of KOR, MOR, and DOR by all test compounds was determined by [^35S]-guanosine 5′-O-[γ-thio]triphosphate ([^35S]-GTPγS) binding assays as previously reported. In a 96-well plate format, membranes from cells expressing opioid receptors as described above (10 µg of protein), [^35S]-GTPγS (0.1 nM), and guanosine diphosphate (30 µM) were incubated in GTPγS buffer (50 mM Tris-HCl, 100 mM NaCl, 5 mM MgCl2, 1 mM EDTA, pH 7.4) with various concentrations of test compound at 25 °C for 1 h. Basal stimulation was determined by incubation in the absence of any ligand. After incubation, membranes were filtered through Whatman GF/C 1.2 micron glass fiber filters and washed with GTPγS buffer with no EDTA. The radioactivity remaining on the filters was then quantified by liquid scintillation counting after saturation with EcoLume liquid scintillation cocktail in a Perkin-Elmer Microbeta 2450. Data are reported as percent stimulation compared to the effects of 10 µM standard agonists—U69,593 (KOR), DAMGO (MOR), or DPDPE (DOR). Percent stimulation and EC50 values were determined via nonlinear regression analysis using GraphPad Prism software from at least three separate assays performed in duplicate. Efficacy is expressed as percent stimulation relative to standard agonists.

human DOR [2] = target: T2, human DOR (Homo sapiens, UniProt P41143); test: [35S]-GTPγS binding stimulation, DOR; type: biochemical; settings: mean (SEM), * n = 2; for EC50 DOR: CHO-human DOR membranes, dns = does not stimulate, average maximal stimulation <10% at up to 10 µM; for % Stimulation DOR: versus 10 µM standard agonist DPDPE, dns = average maximal stimulation <10% at up to 10 µM
T2 construct: expressed in transfected cells; cell lines provided by Professor Lawrence Toll
Experimental: as §1, §2, §3

human DOR [3] = target: T2, human DOR; test: [3H]-diprenorphine competitive displacement binding, DOR; settings: membranes from CHO cells expressing human DOR; mean (SEM), n>=3 in duplicate
Experimental: as §1, §2
(§4) Binding affinities for all test compounds at KOR, MOR, and DOR were determined by competitive displacement of [^3H]-diprenorphine as previously reported. In a 96-well plate format, cell membranes (5–10 µg of protein) and [^3H]-diprenorphine (0.2 nM) were incubated in Tris-HCl buffer (50 mM, pH 7.4) with various concentrations of test compound at 25 °C for 1 h, allowing the mixture to reach equilibrium. Nonspecific binding was determined using the opioid antagonist naloxone (10 µM), and total binding was determined using vehicle in the absence of competitive ligand. After incubation, membranes were filtered through Whatman GF/C 1.2 micron glass fiber filters and washed with 50 mM Tris-HCl buffer. The radioactivity remaining on the filters was then quantified by liquid scintillation counting after saturation with EcoLume liquid scintillation cocktail in a Microbeta 2450 (Perkin-Elmer, Waltham, MA, USA). Binding affinity (Ki) values were calculated using the Cheng–Prusoff equation via nonlinear regression analysis using GraphPad Prism software from at least three separate binding assays performed in duplicate.

human KOR [4] = target: T3, human KOR (Homo sapiens, UniProt P41145); test: [3H]-diprenorphine competitive displacement binding, KOR; settings: for Ki: membranes from CHO cells expressing human KOR, mean (SEM), n>=3 in duplicate
T3 construct: expressed in transfected cells; cell lines provided by Professor Lawrence Toll
Experimental: as §1, §2, §4

human KOR [5] = target: T3, human KOR; test: [35S]-GTPγS binding stimulation, KOR; type: biochemical; settings: mean (SEM)
Experimental: as §1, §2, §3

human MOR [6] = target: T1, human MOR; test: [3H]-diprenorphine competitive displacement binding, MOR; settings: membranes from CHO cells expressing human MOR; mean (SEM), n>=3 in duplicate
Experimental: as §1, §2, §4

[7] = CHO-human KOR membranes, * n = 2, dns = does not stimulate, average maximal stimulation <10% at up to 10 µM
[8] = versus 10 µM standard agonist U69,593, dns = average maximal stimulation <10% at up to 10 µM

Structure (SMILES)	EC50 (human MOR [1])	Emax (human MOR [1])	EC50 DOR (human DOR [2])	% Stimulation DOR (human DOR [2])	Ki (human DOR [3])	Ki (human KOR [4])	EC50 (human KOR [5]; [7])	Emax (human KOR [5]; [8])	Ki (human MOR [6])	selectivity for MOR and DOR over KOR (human KOR [4]; binding selectivity)	EC50 KOR (human KOR [5]; [7])	% Stimulation KOR (human KOR [5]; [8])
Cc1cc(O)cc(C)c1C[C@H](N)C(=O)N1CCc2ccc(CN3CCc4ccccc43)cc2C1 [Compound 8y, (S)-2-amino-3-(4-hydroxy-2,6-dimethylphenyl)-1-(7-(indolin-1-ylmethyl)-3,4-dihydroisoquinolin-2(1H)-yl)propan-1-one]	42 nM	65%	dns *	dns *	1.7 nM	2.6 nM	106 nM	66%	2.2 nM	–	–	–
Cc1cc(O)cc(C)c1C[C@H](N)C(=O)N1CCc2ccc(CN3Cc4ccccc4C3)cc2C1 [Compound 8z, (S)-2-amino-3-(4-hydroxy-2,6-dimethylphenyl)-1-(7-(isoindolin-2-ylmethyl)-3,4-dihydroisoquinolin-2(1H)-yl)propan-1-one]	27 nM	63%	dns *	dns *	1.3 nM	65 nM	–	–	1.5 nM	43 fold	dns	dns
